Measured values reported in patent publication US9040714B2 (MannKind Corporation, priority 2010, dated 2015).
Where two headings read alike, the source gives them in different places.

Tests used:
[1] = target: human IRE-1α (GST-IRE-1α) (Homo sapiens (Human), UniProt O75460); test: IRE-1α assay in vitro: cleavage of Cy5/BHQ2-labelled mini-XBP-1 mRNA stem-loop substrate; type: biochemical; details: average IC50 for inhibition of IRE-1α
Procedure: In some embodiments IRE-la inhibitor compounds form a complex with IRE-1α. […] Other substrates also can be used to detect cleavage. See US 2007/0105123.
A fusion protein comprising glutathione S transferase (GST) and human IRE-1α (GST-IRE-1α) obtained from a 500 ml baculovirus-infected insect cell culture can be used to measure IRE-1α activity in vitro.
Five μl of a reaction mixture comprising IX reaction buffer (5× reaction buffer is 100 mM Hepes pH 7.5, 250 mM KOAc, 2.5 mM MgCl2), 3 mM DTT, and 0.4% polyethylene glycol water is added to each well of 384 well plates. Twenty-five nanoliters of a 1 mM test compound solution are added to test wells. Three μl of a […] IRE-1α preparation are added to each test well and to positive control wells (final concentration 5.82 ng/well). Negative control wells contain only reaction mixture and test compound.
After spinning the plates at 1200 rpm for 30 seconds, 3 μl of an IRE-1α human mini-XBP-1 mRNA stem-loop substrate 5′-[…]-3′ (SEQ ID NO:1), labeled with the fluorescent dye Cy5 at the 5′ end and Black Hole Quencher 2 (BH2) at the 3′ end, are added to each well of a control plate. The plates are again spun at 1200 rpm for 30 seconds. Final concentrations for the assay are: 63 nM IRE-1α substrate, 5.82 ng IRE-1α protein, and 2.5 μM test compound.
The plates are covered with lids and incubated for one hour at 30° C. The plates are then transferred to an ACQUEST™ microplate reader. Data is analyzed using data analysis software, and the percent activity of IRE-1α is calculated.
IC50 for inhibition of IRE-1α of compounds identified in Table 1 was measured as described in EXAMPLE 35.

[2] = system: IRE-1α-mediated XBP-1 splicing in human myeloma MM.1s cells; test: Cellular EC50: endogenous XBP-1 splicing in myeloma cells by RT-PCR (DTT stress); type: cell-based; details: MM1.S, read-out: EC50_av
Procedure: Human myeloma MM.1s cells are incubated with a compound for 1.25 hours before stressing the cells with 2 mM dithiothreitol (DTT). After an additional 45 minutes (2 hours total) with compound and DTT, the cells are harvested with TRIZOL® (a mono-phasic solution of phenol and guanidine isothiocyanate), and total RNA is prepared as directed by the manufacturer (Invitrogen). Human XBP-1 is amplified by RT-PCR with the following primers, which flank the 26 base unconventional intron excised by IRE-1α:
RT-PCR of unstressed (U) cells then generates the upper band. When cells are stressed (S) with the endoplasmic reticulum (ER) stressing agent DTT, IRE-1α is activated due to accumulating unfolded protein and the resulting RT-PCR, product is 26 base pairs shorter.
Compounds which pass specificity assays are assayed for cellular EC50 using endogenous XBP-1 splicing in myeloma cells. XBP-1 is regulated through the excision of a 26 nucleotide intron from the XBP-1 mRNA by the highly specific endoribonuclease activity of IRE-1α. […] This splicing event is used to measure IRE-1α activity on XBP-1 mRNA in cells and tissues.
Briefly, compounds are incubated in the presence or absence of an ER stress agent (e.g., DTT), and the ratio of XBP-1u (unspliced) to XBP-1 s (spliced) is quantified by RT-PCR. The ED50 is determined as the 50% XBP-1s to total XPB-1 levels.

[3] = average cellular EC50, XBP-1 splicing in myeloma cells

Chain of human IRE-1α (GST-IRE-1α) (O75460 19-977): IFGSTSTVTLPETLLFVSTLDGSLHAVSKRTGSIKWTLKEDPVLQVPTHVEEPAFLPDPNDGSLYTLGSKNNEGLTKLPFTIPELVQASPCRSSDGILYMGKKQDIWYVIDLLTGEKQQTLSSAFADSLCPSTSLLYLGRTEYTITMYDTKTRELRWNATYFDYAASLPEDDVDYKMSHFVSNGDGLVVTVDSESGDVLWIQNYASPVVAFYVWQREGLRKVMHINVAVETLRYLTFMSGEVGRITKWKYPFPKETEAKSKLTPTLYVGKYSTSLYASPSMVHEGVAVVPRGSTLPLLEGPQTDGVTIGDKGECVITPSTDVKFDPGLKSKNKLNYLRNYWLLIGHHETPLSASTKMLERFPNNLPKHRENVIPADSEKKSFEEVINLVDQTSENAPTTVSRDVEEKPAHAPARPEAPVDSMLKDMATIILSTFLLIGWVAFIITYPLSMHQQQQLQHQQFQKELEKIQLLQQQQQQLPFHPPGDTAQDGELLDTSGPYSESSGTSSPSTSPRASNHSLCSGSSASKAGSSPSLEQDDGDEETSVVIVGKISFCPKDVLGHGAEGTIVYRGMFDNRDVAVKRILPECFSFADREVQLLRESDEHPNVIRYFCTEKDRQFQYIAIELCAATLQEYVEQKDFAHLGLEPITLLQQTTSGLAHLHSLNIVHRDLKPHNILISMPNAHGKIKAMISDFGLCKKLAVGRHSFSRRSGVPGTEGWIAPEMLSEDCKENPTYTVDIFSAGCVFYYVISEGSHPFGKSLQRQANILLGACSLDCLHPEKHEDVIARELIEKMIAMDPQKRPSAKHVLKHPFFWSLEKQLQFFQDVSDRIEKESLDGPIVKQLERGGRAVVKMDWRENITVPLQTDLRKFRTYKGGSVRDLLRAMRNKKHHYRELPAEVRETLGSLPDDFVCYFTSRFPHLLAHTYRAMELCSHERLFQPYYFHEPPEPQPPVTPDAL

Compound | IC50 [1] [µM] | EC50 [2, 3] [µM] | EC50 [2] [µM]
O=Cc1c(O)ccc2c(=O)c(-c3cnn(-c4ccccc4)c3)coc12 [Example 40] | < 1 | > 10 | 
CN1CCN(C(=O)c2ccc(-c3ccc4c(C=O)c(O)ccc4n3)cc2)CC1 [Example 41] | < 1 | < 10 | 
CN1CCN(C(=O)c2cccc(-c3ccc4c(C=O)c(O)ccc4n3)c2)CC1 [Example 42] | < 1 | < 10 | 
O=Cc1c(O)ccc2nc(-c3ccc(C(=O)N4CCOCC4)cc3)ccc12 [Example 44] | < 1 | < 10 | 
O=Cc1c(O)ccc2nc(-c3ccc(C(=O)NCCN4CCOCC4)cc3)ccc12 [Example 45] | < 1 | < 10 | 
O=Cc1c(O)ccc2nc(-c3cccc(C(=O)NCCN4CCOCC4)c3)ccc12 [Example 46] | < 0.1 |  | < 10
COC(=O)c1cccc(-c2nc3ccc(O)c(C=O)c3[nH]2)c1 [Example 65] | < 0.1 |  | < 10
Cc1c(-c2ccc(C(=O)N3CCOCC3)cc2)c(=O)oc2c(C=O)c(O)c(Cl)cc12 [Example 67] | < 1 | > 10 | 
Cc1c(CC(=O)O)c(=O)oc2c(C=O)c(O)ccc12 [Example 70] | < 0.1 |  | > 10
Cc1nc(-c2c(C)c3ccc(O)c(C=O)c3oc2=O)sc1C(=O)N1CCN(C)CC1 [Example 110] | < 1 |  | < 10
COc1cc2c(C)c(-c3ccc(N4CCN(C)CC4)nc3)c(=O)oc2c(C=O)c1O [Example 113] | < 0.1 |  | < 10
COc1cc2c(C)c(-c3ccc(N4CCOCC4)nc3)c(=O)oc2c(C=O)c1O [Example 114] | < 1 | < 10 | 
COc1cc2c(C)c(-c3ccc(N(C)C)nc3)c(=O)oc2c(C=O)c1O [Example 115] | < 1 | < 10 | 
CCc1cc2c(C)c(-c3ccc(C(=O)NCCN4CCOCC4)cc3)c(=O)oc2c(C=O)c1O [Example 117] | < 1 |  | < 10
CCc1cc2c(C)c(-c3ccc(C(=O)N4CCOCC4)cc3)c(=O)oc2c(C=O)c1O [Example 119] | < 1 |  | > 10
COc1cc(O)c(C=O)c2oc(=O)cc(C)c12 [Example 120] | < 1 |  | < 10
COCCOc1cc(O)c(C=O)c2oc(=O)cc(C)c12 [Example 121] | < 0.1 |  | < 10
Cc1c(CC(=O)N2CCN(C)CC2)c(=O)oc2c(C=O)c(O)ccc12 [Example 130] | < 0.1 |  | < 10
CCOC(=O)Cc1c(C)c2cc(OC)c(O)c(C=O)c2oc1=O [Example 131] | < 0.1 |  | < 10

Compound | IC50 [1] [µM] | EC50 [2, 3] [µM] | EC50 [2] [µM]
COCc1cc(=O)oc2c(C=O)c(O)c(OC)cc12 [Example 136] | < 1 | < 10 | 
COCCNC(=O)CCc1c(COC)c2cc(OC)c(O)c(C=O)c2oc1=O [Example 138] | < 1 | > 10 | 
COCc1c(CCC(=O)NCCN2CCOCC2)c(=O)oc2c(C=O)c(O)c(OC)cc12 [Example 140] | < 1 | > 10 | 
COc1cc2c(C)c(-c3ccc(C(=O)N4CCOCC4)s3)c(=O)oc2c(C=O)c1O [Example 142] | < 0.1 | < 10 | 
COc1cc2c(C)c(-c3ccc(C(=O)NCCN4CCOCC4)s3)c(=O)oc2c(C=O)c1O [Example 143] | < 1 | < 10 | 
COc1cc2c(C(C)C)cc(=O)oc2c(C=O)c1O [Example 146] | < 0.1 | < 10 | 
COc1cc2c(C)c(CCC(=O)NCCO)c(=O)oc2c(C=O)c1O [Example 147] | < 0.1 | > 10 | 
COc1cc2c(C)c(CC(=O)NCCO)c(=O)oc2c(C=O)c1O [Example 148] | < 0.1 | > 10 | 
COCOCCNC(=O)Cc1c(C)c2cc(OC)c(O)c(C=O)c2oc1=O [Example 149] | < 1 | < 10 | 
COCCNC(=O)c1ccc(-c2c(C)c3cc(Cl)c(O)c(C=O)c3oc2=O)cc1 [Example 150] | < 1 |  | > 10
Cc1c(-c2ccc(C(=O)NCCN3CCOCC3)cc2)c(=O)oc2c(C=O)c(O)c(Cl)cc12 [Example 151] | < 1 | > 10 | 
COCCNC(=O)CCc1c(C)c2c(OCCOC)cc(O)c(C=O)c2oc1=O [Example 152] | < 1 | < 10 | 
COCCOc1cc(O)c(C=O)c2oc(=O)c(CCC(=O)N3CCOCC3)c(C)c12 [Example 153] | < 0.1 | < 10 | 
COCCOc1cc(O)c(C=O)c2oc(=O)c(CCC(=O)N3CCN(C)CC3)c(C)c12 [Example 154] | < 0.1 |  | < 10
CCNC(=O)CCc1c(C)c2c(OCCOC)cc(O)c(C=O)c2oc1=O [Example 155] | < 1 |  | < 10
COCCOc1cc(O)c(C=O)c2oc(=O)c(CCC(=O)NCCN3CCOCC3)c(C)c12 [Example 156] | < 1 | > 10 | 
COCCOc1cc(O)c(C=O)c2oc(=O)c(CCC(=O)NCCN(C)C)c(C)c12 [Example 157] | < 1 | > 10 | 
COCCNC(=O)Cc1c(C)c2cc(OC)c(O)c(C=O)c2oc1=O [Example 166] | < 1 | < 10 | 

Now from value to molecule, other results behind:

IC50 [1] [µM] | EC50 [2, 3] [µM] | Compound | EC50 [2] [µM]
< 0.1 | > 10 | CCc1cc2c(=O)c(-c3nc(C)cs3)coc2c(C=O)c1O [Example 39] | 
< 0.1 | > 10 | O=Cc1c(O)ccc2nc(SCC(=O)O)[nH]c12 [Example 63] | 
< 0.1 | > 10 | O=Cc1c(O)ccc2nc(-c3cccc(C(=O)O)c3)[nH]c12 [Example 64] | 
< 0.1 | < 10 | CCOC(=O)c1sc(-c2cc3ccc(O)c(C=O)c3oc2=O)nc1C [Example 68] | 
< 0.1 | < 10 | CCOC(=O)c1cnc(-c2cc3ccc(O)c(C=O)c3oc2=O)s1 [Example 106] | 
< 0.1 | < 10 | CN1CCN(C(=O)c2cnc(-c3cc4ccc(O)c(C=O)c4oc3=O)s2)CC1 [Example 107] | 
< 0.1 | < 10 | Cc1nc(-c2cc3ccc(O)c(C=O)c3oc2=O)sc1C(=O)N1CCN(C)CC1 [Example 108] | 
< 0.1 | < 10 | Cc1nc(-c2cc3ccc(O)c(C=O)c3oc2=O)sc1C(=O)NCCN1CCOCC1 [Example 109] | 
< 0.1 | < 10 | COc1cc2c(C)c(-c3ccc(C(=O)N4CCN(C)CC4)cc3)c(=O)oc2c(C=O)c1O [Example 111] | 
< 0.1 | < 10 | Cc1c(/C=C/C(=O)N2CCN(C)CC2)c(=O)oc2c(C=O)c(O)ccc12 [Example 112] | 
< 0.1 | < 10 | [2H]C(=O)c1c(O)ccc2c(C)c(-c3ccc(C(=O)NCCN4CCOCC4)cc3)c(=O)oc12 [Example 116] | 
< 0.1 | < 10 | CCc1cc2c(C)c(-c3ccc(C(=O)NCCOC)cc3)c(=O)oc2c(C=O)c1O [Example 118] | 
< 0.1 | < 10 | COCCOCCc1c(C)c2cc(OC)c(O)c(C=O)c2oc1=O [Example 127] | 
< 0.1 | < 10 | Cc1c(CC(=O)N2CCOCC2)c(=O)oc2c(C=O)c(O)ccc12 [Example 129] | 
< 0.1 | < 10 | COc1cc2c(CN3CCOCC3)c(C)c(=O)oc2c(C=O)c1O [Example 132] | 
< 0.1 | < 10 | COc1cc2c(CN(C)C)c(C)c(=O)oc2c(C=O)c1O [Example 133] | 
< 0.1 | < 10 | COCc1c(C)c(=O)oc2c(C=O)c(O)ccc12 [Example 137] | 
< 0.1 | < 10 | COCc1c(CCC(=O)N2CCOCC2)c(=O)oc2c(C=O)c(O)c(OC)cc12 [Example 139] | 
< 0.1 | < 10 | COc1cc2c(C)c(-c3ccc(C(=O)N4CCN(C)CC4)s3)c(=O)oc2c(C=O)c1O [Example 141] | 
